# Reference: patent US8614231B2, “Immunosuppressor based on the blockage of TCR-Nck interaction” (Consejo Superior de Investigaciones Cientificas, priority 2008, dated 2013)
# pIC50: −log10 of the molar value. “Also recorded” adds a separate entry of the source.
# What was measured:
# [1] = system: OT-I transgenic mouse primary lymphocytes; assay: IL2 production and antigen-induced proliferation of mouse T lymphocytes; format: cell-based
# Source text: Thus, Nck-CD3ε interaction as a molecular target for immunosuppressor development has been validated.
# [2] = target: T1, SH3.1 domain of Nckα (Homo sapiens, UniProt P16333); assay: NMR chemical displacements in the SH3.1 domain on compound binding; settings: residues Trp41 and Tyr50/Phe53 participate
# T1 construct: The three-dimensional structure of the SH3.1 domain of Nckα
# Method: Displacements of the amino acid residues in the SH3.1 domain caused by the interaction with compound CBM-1. The lateral chains of the amino acids that changed their position after binding the compound are represented. The changes are consequent to the binding of compound CBM-1 to the pocket visualised in virtual screening.
# The three-dimensional structure of the SH3.1 domain of Nckα, in the presence and in the absence of peptide 11R085, was determined in parallel (with the collaboration of the laboratory of Professors María Angeles Jiménez and Manuel Rico, of the Instituto de Química-Física Rocasolano, CSIC, Madrid) (FIG. 6). This enabled validation of the prediction of the structural computer model used for virtual screening. In addition, it allowed measurement of the chemical displacements caused to the structure by compound CBM-1 (FIG. 7).
# The displacements of residues in the SH3.1 domain validate the prediction of the interaction of the SH3.1 domain with CBM-1 at a molecular level and are consistent with the model.
# [3] = system: C57BL/6 mouse spleen cells; assay: Intracellular IFNγ expression by mouse CD4+ T cells stimulated with anti-CD3 + anti-CD28; format: cell-based; settings: Lymphocyte, anti-CD3 + anti-CD28 48 hours, then brefeldin A 6 hours, read-out: IC50 generation of IFNγ-secreting Th1 lymphocytes
# Source text: Intracellular expression of IFNγ in response to stimulation with a mixture of anti-CD3 and anti-CD28.
# The cells were first stained with CD4-PE and after fixing and rinsing they were stained with anti-IFNγ antibody.
# [4] = system: human T lymphocytes; assay: Cytokine secretion by human T lymphocytes (PBMNC) stimulated with anti-CD3 antibodies; format: cell-based; settings: for pIC50: Homo sapiens, T-lymphocyte, supernatant at 72 hours, anti-CD3
# Method: Inhibition by CBM-1 of the secretion of cytokines by human T lymphocytes in response to stimulation with anti-CD3 antibodies. Peripheral blood mononuclear cells (PBMNC) purified from healthy donors were stimulated on plates coated with anti-CD3 OKT3 antibodies in the presence of various doses of CBM-1 for 72 hours. The concentration of the indicated cytokines in the supernatant (IL-10, IFN-γ, and TFN-β) was evaluated by multiparametric flow cytometry (BD cytometric bead array).
# The effect of CBM-1 on the production of cytokines was measured in an assay in which human PBMNC were stimulated with anti-CD3 antibodies. The supernatant of these cells was collected at 72 hours and several cytokines were simultaneously measured by a flow cytometry assay.
# [5] = system: human T lymphocytes; assay: Proliferation of human T lymphocytes stimulated with anti-CD3 antibodies (CFSE, flow cytometry); format: cell-based; settings: for pIC50: Homo sapiens, T-lymphocyte, 120 h, PBMNC, 5 days
# Method: For the next round of selection of the compounds resulting from virtual screening with potential for blocking Nck-CD3ε interaction, PBMNC purified from healthy donors were labelled with fluorescence and incubated for 5 days on plates covered with anti-CD3 OKT3 antibodies in the presence of different doses of these compounds. Proliferation of T lymphocytes was evaluated by flow cytometry in accordance with the loss of green fluorescence (CFSE) within the CD8+ population.
# (§1) PBMNCs purified from healthy donors were labelled with CFSE and incubated for 5 days on plates coated with anti-CD3 OKT3 antibody in the presence of various doses of the compounds indicated, among them CBM-1. The proliferation was evaluated by flow cytometry in accordance with the loss of green fluorescence (CFSE) within the CD4+ and CD8+ populations. A parallel experiment was performed on the proliferation of human IL2-dependent lymphoblasts. Purified PBMNC from healthy donors were stimulated with PHA for 48 hours and labelled with CFSE. The were subsequently cultured for 3 days in the presence of 100 IU/ml of human recombinant IL2 in the presence of concentrations of the compounds used, particularly CBM-1.
# [6] = system: human IL2-dependent lymphoblasts; assay: Proliferation of human IL2-dependent lymphoblasts (IL2R-dependent proliferation); format: cell-based; settings: at concentrations of 20 μM; 100 IU/ml IL2, 3 days
# Method: as §1
# [7] = system: Human Jurkat T lymphocyte cell line; assay: Toxicity by propidium iodide exclusion and flow cytometry, Jurkat; format: cell-based; settings: 48 hours, even at the highest dose
# Method: (§2) Human Jurkat T lymphocyte cell line and human Raji lymphoblastoid B cell line were incubated with the indicated concentrations of CBM-1 for 48 hours. The toxicity of the compound was estimated by propidium iodide exclusion and flow cytometry. The two cell lines remained with 100% viability after 48 hours, even at the highest dose of the compound.
# [8] = system: T lymphocytes; assay: Inhibitory action on the activation of T lymphocytes (summary statement); format: cell-based; settings: both in mice and humans; concentrations as low as
# Source text: It inhibited the production of IFNγ, IL-10 and TNFβ, as well as the generation of human cells that produce IFNγ in response to anti-CD3 and anti-CD28 in human lymphocytes stimulated with anti-CD3 and anti-CD28 antibodies.
# [9] = system: human Raji lymphoblastoid B cell line; assay: Toxicity by propidium iodide exclusion and flow cytometry, Raji; format: cell-based; settings: 48 hours, even at the highest dose
# Method: as §2
# [10] = 72 hours, up to concentrations of 30 μM
compound,measurement,setting,value
c1ccc(C2=C(CN3CCCCC3)C(c3ccccc3)c3ccccc3O2)cc1 (centres unmarked) [CBM-1],proliferation of antigen-dependent mouse T lymphocytes (in words),[1],inhibited
same,release of IL2 (in words),[1]; mouse T lymphocytes,inhibited
same,binding to the SH3.1 domain (NMR),[2],binds to a hydrophobic pocket
same,pIC50,[3],6.10
same,effect on the production of IL5,[4]; [10],did not show any effect; also recorded: no effect
same,effect on the production of IL6,[4]; [10],did not show any effect; also recorded: no effect
same,effect on the release of IL1-β,"[4]; 72 hours, various doses",did not show any effect
same,pIC50,[4]; read-out: IC50 IFNγ production,6.52
same,pIC50,[4]; read-out: IC50 IL10 production,6.70
same,pIC50,[4]; read-out: IC50 TNFβ production,6.70
same,pIC50,"[5]; anti-CD3 OKT3, CD4+ population, read-out: IC50 proliferation of CD4+ lymphocytes induced by anti-CD3",5.70
same,pIC50,"[5]; anti-CD3 OKT3, CD8+ population, read-out: IC50 proliferation of CD8+ lymphocytes induced by anti-CD3",5.52
same,blocking activity on the proliferation of the lymphocytes (in words),"[5]; anti-CD3 OKT3, 5 days, compounds from virtual screening",highest activity and least toxicity; also recorded: best and least toxic
same,inhibition of the proliferation of human IL2-dependent lymphoblasts,[6],did not significantly inhibit
same,viability,[7],100%
same,concentration with inhibitory action on the activation of T lymphocytes,[8],≥ 0.1 µM
same,viability,[9],100%
